Measured values from US20260000670A1 (priority 2022, published 2026).

Key:
[1] = Lindauer M et al, 2010; cited from earlier work
murine splenocytes = assay: AAV8-dependent cytokine and chemokine release by murine splenocytes; format: cell-based, C57BL/6 mouse; details: dasatinib 100 nM, 50 nM or 12.5 nM; 24 hrs, AAV8-hSeap MOI 1E5
Protocol: Splenocytes were isolated from a C57/B16 mouse and incubated for 24 hrs with AAV8-hSeap at MOI 1E5 in the presence or absence of dasatinib (100 nM, 50 nM or 12.5 nM). Cytokines and chemokines were measured in the culture supernatants. LPS (positive) and PBS (negative) controls are shown on the graphs. Means+/−SD (triplicates). Dashed line: Lower limit of quantification.
To investigate the mechanism of dasatinib-mediated inhibition of the humoral response to AAV8 observed in mice (Examples 1 and 5), we looked whether the rapid production of cytokines and chemokines by immune cells was affected by the dasatinib treatment. Total splenocytes from a C57BL/6 mouse were cultured for 24 hrs in the presence or absence of dasatinib at different concentrations. Cytokines and chemokines secreted in the culture supernatants were analyzed using ProcartaPlex Immunoassays (Luminex).

mice [2] = assay: anti-AAV8 IgM and IgG titers, 1-week vs 2-week dasatinib treatment in mice; format: in vivo
Protocol: (§1) FIG. 7: In vivo study to assess the impact of prolonging the dasatinib treatment. All mouse groups, except Group 1, were immunized on day 1 with an i.v. injection of AAV8-hSeap (1e12 vg/kg). Four groups received an i.v. injection of AAV8-FactorIX (3e13 vg/kg) on day 43. Concomitantly to the first AAV administration, Groups 3 and 4 were treated with dasatinib for either 1 or 2 weeks, respectively. Dasatinib was administered at the dose of 50 mg/kg per oral gavage, twice per day and starting 1 hr before the first AAV treatment.
(§2) FIGS. 8A-8B: Prolongation of dasatinib treatment from 1 week to 2 weeks improves the inhibition of IgM formation to AAV8. In the experiment described in FIG. 8A and FIG. 8B anti-AAV8 IgM titers (median+/−SD) were measured in each mouse group from day 0 (before AAV8-hSeap administration) to day 64, as described for FIGS. 2A-2C. Each circle represents an individual IgM titer.
as §2, with “9A-9B:” for “8A-8B:”, “IgG” for “IgM”, “9A” for “8A”, “9B,” for “8B”, “3A-3C.” for “2A-2C.”
In the experiment described in Example 1, despite the strong inhibition of anti-AAV antibody formation observed in most of the mice, 4 out of 10 dasatinib-treated animals started to develop anti-AAV8 IgG before re-dosing (FIG. 3C, days 15-21). The presence of residual AAV8 particles in the circulation and in the tissues after the cessation of the dasatinib treatment might lead to this antibody formation. […] To this purpose, the same protocol was applied as in Example 1, but using either a 1-week or a 2-week dasatinib treatment. In addition, re-dosing was performed at a later time point (day 43 instead of day 22) to be able to observe potential antibody formation after the cessation of dasatinib treatment. This protocol is depicted in FIG. 7.
Circulating IgM and IgG directed against the AAV8 capsid were titrated in the serum samples (FIGS. 8A-8B and 9A-9B). The peaks of anti-AAV8 IgM were observed one week after first rAAV8 dosing, on day 8 for the immunized control Group 2 and on day 50 for the non-immunized control Group 1 (10/10 mice above the threshold) (FIGS. 8A-8B). […] Inhibition of IgM production was stronger in Group 4, treated with dasatinib for 2 weeks.

[3] = system: PBMCs from human heathy donors; assay: FluoroSpot T cell responses of PBMCs to AAV2 and AAV9 capsid peptide pools; format: cell-based; details: 100 nM dasatinib, 48 hrs, two donors
Protocol: FIGS. 12A-12B: Dasatinib treatment reduces T cell responses to AAV2 and AAV9 in vitro. PBMCs from human heathy donors were stimulated with peptide pools covering the AAV2 and AAV9 capsid sequences in the absence (black bars) or presence of 100 nM dasatinib (grey bars). After 48 hrs, IFN-γ- and TNF-α secreting cells were measured by Fluorospot. Mean Spot-Forming Cellsmedian+/−SD are shown for 1E6 PBMCs. Dotted line: Positivity threshold.
An important question was its potential effect on the cellular adaptive immune response. T cell responses to rAAV have been reported to induce the clearance of AAV-transduced cells and thereby decrease the duration of transgene expression. It is also known that T cell responses to AAV can mediate liver toxicities in the clinic. T cell responses to AAV can be measured in healthy human blood donors who have previously been infected with wild-type AAV. FluoroSpot assays reveal the proportions of IFN-y-and TNF-a-producing PBMCs induced upon incubation with pools of AAV capsid peptides. We used this assay to assess the response of PBMCs from two healthy blood donors to three different peptide pools covering the capsid sequences of AAV2 and AAV9 (FIGS. 12A-12B). […] Donor 2 had positive IFN-γ and/or TNF-α responses to AAV9 pools 2 and 3. All these responses were inhibited in the presence of 100 nM dasatinib.

mice [4] = assay: hFIX transgene expression after re-dosing, 1-week vs 2-week dasatinib treatment; format: in vivo
Protocol: as §1
FIG. 10: Prolongation of dasatinib treatment upon first AAV8 dosing improves transgene expression after readministration. In the experiment described in FIG. 10, the levels of hFIX expression (ng/mL, median+/−SD) were measured for each group, starting on day 42 (one day before administration of AAV8-hFIX) and up to day 64.
In the experiment described in Example 1, despite the strong inhibition of anti-AAV antibody formation observed in most of the mice, 4 out of 10 dasatinib-treated animals started to develop anti-AAV8 IgG before re-dosing (FIG. 3C, days 15-21). […]
The inhibition of antibody formation to AAV8 correlated with the improvement of hFIX transgene expression after re-dosing, showing efficient transduction by the second AAV8(FIG. 10). Expression of hFIX was inversely correlated with the IgG and IgM titers measured on day 42 before re-dosing.

[5] = Group 4, dasatinib for 2 weeks, day 42

Cc1nc(Nc2ncc(C(=O)Nc3c(C)cccc3Cl)s2)cc(N2CCN(CCO)CC2)n1 [dasatinib, N-(2-chloro-6-methylphenyl)-2-[[6-[4-(2-hydroxyethyl)-1-piperazinyl]-2-methyl-4-pyrimidinyl]amino]-5-thiazole carboxamide monohydrate]
half-life [1]: very short
IL-6 in culture supernatant (murine splenocytes): dose-dependent decreases
IP-10/CXCL10 in culture supernatant (murine splenocytes): dose-dependent decreases
MCP-1 in culture supernatant (murine splenocytes): dose-dependent decreases
MCP-3 in culture supernatant (murine splenocytes): dose-dependent decreases
MIP-1α in culture supernatant (murine splenocytes): dose-dependent decreases
MIP-1β in culture supernatant (murine splenocytes): dose-dependent decreases
MIP-2α in culture supernatant (murine splenocytes): dose-dependent decreases
TNF-α in culture supernatant (murine splenocytes): dose-dependent decreases
anti-AAV8 IgM titers until administration of the second rAAV8 (mice [2]; Group 3, dasatinib 50 mg/kg oral twice per day for 1 week): remained low to negative
mice with negative anti-AAV8 IgG titers (mice [2]; Group 3, dasatinib for 1 week, day 42): 3/15
mice with positive IgM titers to AAV8 (mice [2]; Group 3, dasatinib for 1 week, day 42 before AAV8 re-dosing): Four out of 15
inhibition of IgM production compared with 1-week treatment (mice [2]; Group 4, dasatinib for 2 weeks): stronger
mice with IgG titers below the positivity threshold (mice [2]; [5]): 5/15
mice with positive IgM titer (mice [2]; [5]): one
median anti-AAV8 IgG titer (mice [2]; Group 4, dasatinib for 2 weeks, day 42, compared with 1-week Group 3): much lower than in Group 3
anti-AAV8 IgG titers after rAAV8 re-administration (mice [2]; day 64, 3 weeks after rAAV8 re-administration): comparable in all mouse groups
IFN-γ responses (secreting cells) to AAV9 peptide pools [3]: inhibited
TNF-α responses (secreting cells) to AAV2 and AAV9 peptide pools [3]: inhibited
expression of hFIX, 2-week treatment compared with 1-week treatment (mice [4]; Group 4 (2 weeks) vs Group 3 (1 week), after AAV8-FactorIX 3e13 vg/kg on day 43): higher
hFIX levels in mice that remained IgG-negative on day 42 (mice [4]; day 64, dasatinib-treated mice): in the range of those measured in the non-immunized control Group 1
